Where a name gives a salt, the structure may show the parent alone.
Legend:
[1] = test system: aerosol antigen induced bronchial spasms and death; assay: prevention of aerosol antigen induced bronchial spasms and death in the guinea pig; assay type: in vivo; conditions: Cavia porcellus, po, orally, read-out: minimal amount required to prevent aerosol antigen induced bronchial spasms and death
Source text: The minimal amounts of the compounds of Examples 5 and 9 required to prevent aerosol antigen induced bronchial spasms and death in the guinea pig are respectively 4.0 and 8.0 milligrams per kilogram of body weight orally.

[2] = test system: wheals induced by intradermal injections of histamine; assay: reduction of wheals induced by intradermal injections of histamine in guinea pigs; assay type: in vivo, guinea pig; conditions: Cavia porcellus, po, 1 h, orally administered one hour prior to histamine injection, intradermal injections of 1γ each of histamine, read-out: ED50 (amount required to reduce by 50% wheals induced by intradermal histamine)

Row | Compound | minimal effective dose [1] [mg/kg] | ED50 [2] [mg/kg]
1 | Cl.O=C(CCCN1CCC(=C(c2ccccc2)c2ccccc2)CC1)c1cccs1 [Example 5, 4-[4-(Diphenylmethylene)piperidino]-1-(2-thienyl)-1-butanone hydrochloride] | 4 | 3.1
2 | CC(C)(C)c1ccc(C(=O)CCCN2CCC(=C(c3ccccc3)c3ccccc3)CC2)cc1.Cl [Example 9, 4'-tert-Butyl-4-[4-(diphenylmethylene)piperidino]butyrophenone hydrochloride] | 8 | 4
3 | Fc1ccc(C=CCCN2CCC(C(c3ccccc3)c3ccccc3)CC2)cc1 [Example 2, 4-(Diphenylmethyl)-1-[4-(p-fluorophenyl)-3-butenyl]-piperidine hydrochloride hemihydrate] | – | 14.4

— patent publication US4180583A, “Olefinic 4-substituted piperidino derivatives as therapeutics” (Richardson-Merrell Inc., priority 1978, dated 1979)
